Results published in patent US9216954B2, “Serine racemase inhibitor” (National University Corporation University of Toyama, priority 2012, dated 2015).

| SMILES | melting point |
| --- | --- |
| O=C(CNS(=O)(=O)Cc1ccccc1)Nc1c(F)cccc1F [DR-1, N-(2,6-difluorophenyl)-2-phenylmethanesulfonylaminoacetamide] | 141 to 142 °C |
| Cc1ccc(S(=O)(=O)NCC(=O)Nc2c(F)cccc2F)cc1 [DR-2, N-(2,6-Difluoro-phenyl)-2-(toluene-4-sulfonylamino)-acetamide] | 129 to 130 °C |
| CC(NC(=O)CNS(=O)(=O)Cc1ccccc1)c1ccccc1 (centres unmarked) [DR-3, N-(1-Phenyl-ethyl)-2-phenylmethanesulfonylamino-acetamide] | 147 to 148 °C |
| Cc1ccc(S(=O)(=O)NCC(=O)NCc2ccc(Br)cc2)cc1 [DR-10, N-(4-Bromo-benzyl)-2-(toluene-4-sulfonylamino)-acetamide] | 207 to 208 °C |
| Cc1ccc(S(=O)(=O)NCC(=O)NCc2ccc(Br)cc2F)cc1 [DR-11, N-(4-Bromo-2-fluoro-benzyl)-2-(toluene-4-sulfonylamino)-acetamide] | 123 to 124 °C |
| O=C(CNS(=O)(=O)Cc1ccccc1)Nc1cccc(Br)c1 [DR-12, N-(3-bromophenyl)-2-phenylmethanesulfonylaminoacetamide] | 215 to 216 °C |
| O=C(CNS(=O)(=O)Cc1ccccc1)Nc1ccc(Cl)cc1 [DR-14, N-(4-Chloro-phenyl)-2-phenylmethanesulfonylamino-acetamide] | 200 to 201 °C |
| Cc1ccc(/C=C/S(=O)(=O)NCC(=O)NCc2ccc(Br)cc2)cc1 [DR-31, N-(4-Bromo-benzyl)-2-(2-p-tolyl-ethenesulfonylamino)-acetamide] | 200 to 201 °C |
| COc1ccc(NC(=O)CNS(=O)(=O)/C=C/c2ccc(C)cc2)cc1 [DR-32, N-(4-Methoxy-phenyl)-2-(2-p-tolyl-ethenesulfonylamino)-acetamide] | 145 to 146 °C |
| Cc1ccc(/C=C/S(=O)(=O)NCC(=O)Nc2ccc(Br)cc2)cc1 [DR-33, N-(4-Bromo-phenyl)-2-(2-p-tolyl-ethenesulfonylamino)-acetamide] | 216 to 219 °C |

Second part, the molecule after the results:

| melting point | SMILES |
| --- | --- |
| 232 to 233 °C | O=C(/C=C/c1ccc(Cl)cc1)NC(=S)NNC(=O)Cc1cccs1 [LW-1, 3-(4-Chloro-phenyl)-N—[N′-(2-thiophen-2-yl-acetyl)-hydrazinocarbothioyl]-acrylamide] |
| 219 to 220 °C | O=C(/C=C/c1c(Cl)cc(Cl)cc1Cl)NC(=S)NNC(=O)Cc1cccs1 [LW-2, N—[N′-(2-Thiophen-2-yl-acetyl)-hydrazinocarbothioyl]-3-(2,4,6-trichloro-phenyl)-acrylamide] |
| 222 to 223 °C | O=C(/C=C/c1ccc([N+](=O)[O-])cc1)NC(=S)NNC(=O)Cc1cccs1 [LW-3, 3-(4-Nitro-phenyl)-N—[N′-(2-thiophen-2-yl-acetyl)-hydrazinocarbothioyl]-acrylamide] |
| 212 to 213 °C | Cc1ccc(/C=C/C(=O)NC(=S)NNC(=O)Cc2cccs2)cc1 [LW-4, N—[N′-(2-Thiophen-2-yl-acetyl)-hydrazinocarbothioyl]-3-p-tolyl-acrylamide] |
| 207 to 208 °C | COc1ccc(/C=C/C(=O)NC(=S)NNC(=O)Cc2cccs2)c(OC)c1 [LW-6, 3-(2,4-Dimethoxy-phenyl)-N—[N′-(2-thiophen-2-yl-acetyl)-hydrazinocarbothioyl]-acrylamide] |
| 212 to 213 °C | O=C(/C=C/c1cc(Br)cc(Br)c1)NC(=S)NNC(=O)Cc1cccs1 [LW-7, 3-(3,5-Dibromo-phenyl)-N—[N′-(2-thiophen-2-yl-acetyl)-hydrazinocarbothioyl]-acrylamide] |
| 201 to 202 °C | CC(C)c1ccc(/C=C/C(=O)NC(=S)NNC(=O)Cc2cccs2)cc1 [LW-8, 3-(4-Isopropyl-phenyl)-N—[N′-(2-thiophen-2-yl-acetyl)-hydrazinocarbothioyl]-acrylamide] |
| 231 to 232 °C | O=C(/C=C/c1ccc(-c2ccccc2)cc1)NC(=S)NNC(=O)Cc1cccs1 [LW-9, 3-Biphenyl-4-yl-N—[N′-(2-thiophen-2-yl-acetyl)-hydrazinocarbothioyl]-acrylamide] |
| 220 to 221 °C | COc1cccc(OC)c1/C=C/C(=O)NC(=S)NNC(=O)Cc1cccs1 [LW-10, 3-(2,6-Dimethoxy-phenyl)-N—[N′-(2-thiophen-2-yl-acetyl)-hydrazinocarbothioyl]-acrylamide] |
| 207 to 208 °C | O=C(/C=C/c1c(F)cc(F)cc1F)NC(=S)NNC(=O)Cc1cccs1 [LW-11, N—[N′-(2-Thiophen-2-yl-acetyl)-hydrazinocarbothioyl]-3-(2,4,6-trifluoro-phenyl)-acrylamide] |
| 212 to 213 °C | O=C(/C=C/c1ccc(F)cc1)NC(=S)NNC(=O)Cc1ccccc1 [LW-12, 3-(4-Fluoro-phenyl)-N—(N′-phenylacetyl-hydrazinocarbothioyl)-acrylamide] |
| 210 to 211 °C | O=C(/C=C/c1c(F)cc(F)cc1F)NC(=S)NNC(=O)Cc1ccccc1 [LW-14, N—(N′-Phenylacetyl-hydrazinocarbothioyl)-3-(2,4,6-trifluoro-phenyl)-acrylamide] |
| 217 to 218 °C | O=C(/C=C/c1ccc(F)cc1)NC(=S)NNC(=O)c1cccs1 [LW-16, 3-(4-Fluoro-phenyl)-N—[N′-(thiophene-2-carbonyl)-hydrazinocarbothioyl]-acrylamide] |
| 161 to 162 °C | O=C(Cc1cccs1)NNC(=S)NC(=O)Cc1ccccc1 [LW-18, 2-Phenyl-N—[N′-(2-thiophen-2-yl-acetyl)-hydrazinocarbothioyl]-acetamide] |
| 209 to 210 °C | COc1cccc(OC)c1/C=C/C(=O)NC(=S)NNC(=O)c1cccs1 [LW-19, 3-(2,6-Dimethoxy-phenyl)-N—[N′-(thiophene-2-carbonyl)-hydrazinocarbothioyl]-acrylamide] |
| 217 to 218 °C | O=C(/C=C/c1cc(Br)cc(Br)c1)NC(=S)NNC(=O)c1cccs1 [LW-20, 3-(3,5-Dibromo-phenyl)-N—[N′-(thiophene-2-carbonyl)-hydrazinocarbothioyl]-acrylamide] |
| 195 to 196 °C | O=C(/C=C/c1cc(Br)cc(Br)c1)NC(=S)NNC(=O)Cc1ccc(F)cc1 [LW-21, 3-(3,5-Dibromo-phenyl)-N-{N′-[2-(4-fluoro-phenyl)-acetyl]hydrazinocarbothioyl}-acrylamide] |
| 182 to 183 °C | O=C(Cc1ccc(F)cc1)NNC(=S)NC(=O)Cc1ccccc1 [LW-22, N-{N′-[2-(4-Fluoro-phenyl)-acetyl]-hydrazinocarbothioyl}-2-phenyl-acetamide] |
| 224 to 225 °C | O=C(/C=C/c1cc(Br)cc(Br)c1)NC(=S)NNC(=O)c1ccccc1 [LW-23, N—(N′-Benzoyl-hydrazinocarbothioyl)-3-(3,5-dibromo-phenyl)-acrylamide] |
| 203 to 204 °C | Cc1cccc(CC(=O)NNC(=S)NC(=O)/C=C/c2cc(Br)cc(Br)c2)c1 [LW-24, 3-(3,5-Dibromo-phenyl)-N—[N′-(2-m-tolyl-acetyl)-hydrazinocarbothioyl]-acrylamide] |
| 149 to 150 °C | Cc1cccc(CC(=O)NNC(=S)NC(=O)Cc2ccccc2)c1 [LW-25, 2-Phenyl-N—[N′-(2-m-tolyl-acetyl)-hydrazinocarbothioyl]-acetamide] |
| 202 to 203 °C | COc1cccc(CC(=O)NNC(=S)NC(=O)/C=C/c2cc(Br)cc(Br)c2)c1 [LW-26, 3-(3,5-Dibromo-phenyl)-N-{N′-[2-(3-methoxy-phenyl)-acetyl]-hydrazinocarbothioyl}-acrylamide] |
